Earlier results on one substance are cited in publication PMC5849076 (Biochemistry, 2018).

One series deals with DaCld (Dechloromonas aromatica, UniProt Q47CX0).
DaCld, sequence (Q47CX0 35-282): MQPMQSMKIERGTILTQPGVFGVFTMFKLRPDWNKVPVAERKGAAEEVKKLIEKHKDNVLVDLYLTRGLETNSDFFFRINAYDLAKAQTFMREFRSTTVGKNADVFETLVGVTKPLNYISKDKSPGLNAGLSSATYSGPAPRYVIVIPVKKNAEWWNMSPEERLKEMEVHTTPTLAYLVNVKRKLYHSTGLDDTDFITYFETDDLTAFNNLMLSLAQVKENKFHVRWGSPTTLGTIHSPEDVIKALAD

On to chlorite [ClO2^−], for which the “turnovers prior to irreversible inactivation” value at DaCld is on record as > 20,000 equivalents of ClO2^− per heme. Further, in the series on KpCld, the number of turnovers is on record as 6700 ± 300 equivalents ClO2^−/heme.
